Data set [1] is described as follows: In vivo biodistribution of DY675-labeled peptide by fluorescence imaging. To be noted: intraperitoneal, female Balb/c mice, up to 65 minutes. As to the method:
E1Free peptide was co-synthesized with the near-infrared absorbing fluorescent dye DY675 and the resultant labeled peptide was purified by RP-HPLC. Forty microgams of the peptide was injected intraperiotoneally into shaved and isoflurane anesthesized female Balb/c mice. For imaging of the biodistribution of the peptide, the animals were placed into a fluorescence microscope chamber under continuous isoflurane exposure. Fluorescence exposure pictures were taken with an IVIS microscope set to a 695 nm emission wavelength. Images were obtained once a minute for the first ten minutes after peptide addition and every five minutes afterwards, until a 65 minute stop point was reached.

The subject of a further data set is ERK1/2. Nature of the data set: ObR signaling assay: ERK1/2 phosphorylation in MCF-7 cells by Western blotting. It counts as cell-based, human. The protocol: MCF-7 cells were grown and treated with E1Free peptide and full-sized leptin as described for the cell stimulation assays elsewhere herein. Cells were lysed with SDS sample buffer and scraped off of the plate. DNA was sheared using sonication, after which the sample was heated to 95° C., centrifuged and, subjected to SDS-PAGE. After gel electrophoresis, the proteins were transferred to nitrocellulose membrane. The membrane was incubated with 5% milk as blocking buffer, followed by addition of rabbit polyclonal antibodies to phosphorylated or total ERK1/2 MAP kinases (1:500 dilution in TBST and 2% milk, Cell Signaling Technology). The expression of a constitutive Hsp72/74 protein was probed with mouse monoclonal antibodies to control protein loading (1:5,000 dilution in TBST and 3% milk Calbiochem). After extensive washing, the blots incubated with HRP-conjugated secondary anti-rabbit (1:1,000 in TBST and 2% milk, Santa Cruz Biotechnology) and anti-mouse (1:10,000 TBST and 3% milk, Amersham Biosciences) IgG antibodies produced in goats, and developed as described for the dot-blot above.

A further data set deals with MCF-7 cells. Nature of the data set: MCF-7 cell stimulation (cell growth) assay, cell counts by trypan blue exclusion. The data set is classed as cell-based, human. The note with it: for MCF-7 cell count increase: no leptin. The source says: For the evaluation of the biological activity of the synthesized leptin Site III peptide fragments, human cell lines were selected in which the ObR expression level is known. Two ObR-positive human cell models were used: MCF-7 breast cancer cells and DU-45 prostate cancer cells. Both cell lines express ObR, and leptin and leptin analogues stimulate their growth (C. Garofalo, et al., Clin. Cancer Res., 2004, 10, 6466-6475; C. Garofalo, et al., Clin. Cancer Res., 2006, 12, 1447-1453). Normal mammary epithelial MCF-10 cells lacking ObR were used as a negative control (X. Hu, et al., J. Natl. Cancer Inst., 2002, 94, 1704-1711).
Biological activity of the Site III peptides was assayed as follows. MCF-7 cells were stimulated with 6 nM full-sized leptin. The smaller leptin fragments and analogs were added to the cell culture at a concentration of 10 nM, 100 nM or 1 μM. Leptin at […] concentration stimulated MCF-7 cell growth by approximately 40%, in line with previous observations (C. Garofalo, et al., Clin. Cancer Res., 2004, 10, 6466-6475). All Site III peptides bound to the extracellular domain of ObR as documented by dot-blot or Western-blot analysis. […] In fact, it reversed leptin induced stimulation of MCF-7 cells at as low as 10 nM peptide concentration, with an additional 50% reduction in cell counts at 1 μM. When the assay was run at a more reliably measurable 1 μM peptide concentration, a consistent 6% decrease in cell numbers could be observed compared to the leptin only samples. In summary, in the presence of exogenously added full-sized leptin these assays verified the strong antagonist activity of the Site III Ala,Ala mutant.
The cell stimulation activity of the Site III peptides was assayed as follows. Human leptin was purchased from R&D Systems and used at a concentration of 100 ng/mL (approximately 6 nM). MCF-7 and DU-45 cells naturally expressing ObR were grown in a standard medium DMEM:F12 plus 5% fetal bovine serum. MCF-10 was grown in serum-free mammalian epithelial growth medium supplemented with 100 ng/mL cholera toxin. Seventy percent confluent cultures were synchronized in serum-free medium (DMEM plus 10 μM FeSO4, plus 0.5% albumin) for 24 h and then treated with leptin and/or peptides (different doses) for 5 days. Cell counts before and after treatment were determined by counting the cells using trypan blue exclusion. All assays were conducted in triplicate and repeated at least twice.

Data set [2] relates to ovariectomised (OVX) ewes. Nature of the data set: Voluntary food intake in animals with icv infusion. The data set is classed as in vivo. As to the method: This experiment was conducted using ovariectomised (OVX) ewes (n=4/group: 55 kg). Ovariectomy removes cyclic effects of ovarian steroids, which affect sensitivity to leptin. The experiments were performed in an isolated room with an ambient temperature range of 17-22° C. […] peptide was administered to animals by way of Silastic cannulae introduced into the lateral cerebral ventricle (H8) for intracerebroventricular (icv) infusion. For infusion, pyrogen-free leptin peptide was dissolved in 0.1 mM HCl and diluted in artificial cerebrospinal fluid (aCSF) to a concentration of 10 μg/100 μl. All infusions were initiated at 0900 hours and control animals received an infusion of aCSF 100 μl/hour.

We go through one substance from US8470772B2, “Leptin agonist and methods of use” (Temple University—Of The Commonwealth System of Higher …, priority 2008, dated 2013).

Non-standard residues stand in square brackets, D forms with d. No end group written: not given here. *: point of attachment. βGlc = OC[C@H]1O[C@@H](*)[C@H](O)[C@@H](O)[C@@H]1O; Tyr(3,5-I2) = N[C@@H](Cc1cc(I)c(O)c(I)c1)C(=O)O; Dap = NC[C@H](N)C(=O)O

For the substance “Tyr(I2)-Serβ(Glc)-Thr-Glu-Va1-Va1-Ala-Leu-Ser-Arg-Leu-Dap(Ac) ([Tyr(3,5-I2)]S(βGlc)TEVVALSRL[Dap](Ac)-NH2) [E1Free]”, the biodistribution entry in data set [1] is “localizes in the head, as well as the kidneys and liver”. Besides, the “peptide concentration of maximum observed ERK1/2 stimulation” value in the data set on ERK1/2 is 200 nM. Also, the “phosphorylation of ERK1/2” value in the data set on ERK1/2 (total ERK1/2 steady) is “increased”. In addition, the figures for the “MCF-7 cell count increase” value in the data set with MCF-7 cells (100 nM peptide) and in the data set with MCF-7 cells (1000 nM peptide) were 81% and 114%, respectively. Further, the “further increase of leptin-induced cell stimulation” value in the data set with MCF-7 cells (1000 nM peptide, in the presence of 6 nM leptin) is reported as 84%. Further, the “overall agonist character on cells expressing ObR” value in the data set with MCF-7 cells (in the presence and absence of leptin) was “full agonists”. The “reduction of voluntary food intake compared to controls (aCSF)” value in data set [2] (10 μg/hour for 7 hours icv, program-fed OVX ewes, P<0.05) was “approx. 25%”. In addition, in data set [2] (icv infusion, OVX ewes, over the course of two days), the “effect on voluntary food intake” value is “voluntarily reduce the amount of food taken in”.
